Measurements published in patent publication US20220339135A1, “COMPOSITIONS AND METHODS FOR MODULATING AN INFLAMMATORY RESPONSE” (Enzychem Lifesciences Corporation, priority 2019, published 2022).
“Also recorded” adds a separate entry of the source.

Assays:
[1] = test system: MIP2 and CXCL8 in BMDM and THP-1; experiment: Gemcitabine-induced MIP-2 / CXCL8, RT-PCR and ELISA; format: cell-based; conditions: dose-dependent
Description: Total RNA was extracted using the Total RNA Extraction Solution (Favorgen, Taiwan), according to the manufacturer's instructions. This RNA was used in reverse transcription reactions with oligo-dT primers and M-MLV RT reagents (Promega, Madison, Wis., USA), according to the manufacturer's instructions. For RT-PCR, the synthesized cDNA was mixed with 2×PCR Master Mix (Solgent, Daejeon, Republic of Korea) and 10 pmol specific PCR primer pair following the manufacturer's protocol. […] An SYBR Green kit (Applied Biosystems, Foster City, Calif., USA) was used for real-time PCR (qPCR) analysis of cDNA according to the manufacturer's instructions. […] The relative expression levels of target genes were calculated by the 2^-ΔΔCT relative quantification method. […] The concentration of MIP-2 was measured using ELISA kits for MIP-2 (R&D Systems, Minneapolis, Minn., USA according to the manufacturers' instructions. Cytokine levels were estimated by interpolation from a standard curve generated using an ELISA reader (Molecular Devices) at 450 nm. Total RNAs from cells were isolated using TRIzol® reagent (Invitrogen, CA, USA) according to the manufacturer's instructions. RT-PCR was performed using PCR reagent (Bioassay, Daejeon, South Korea). […]

[2] = test system: PAK in LPL or GPIHBP-1 silenced cells; experiment: In vitro phagocytosis assay in LPL or GPIHBP-1 silenced cells; format: cell-based; conditions: 1 h after infection
Experimental: For immunofluorescence-based measurement of phagocytosis and clearance, BMDMs were grown on glass coverslips in 24-well plates. The cells were infected with PAK (MOI, 50) for different time intervals and then were treated with 10 μg/ml gentamycin for 30 minutes to remove extracellular PAK attached to the cell surface. The infected cells were washed with ice-cold PBS several times, followed by fixing for 10 minutes at room temperature in methanol or 10% paraformaldehyde. The cells were stained with anti-Pseudomonas antibody (Abcam) and then were incubated with goat anti-rabbit IgG secondary antibody conjugated with Alexa Fluor 488. […]
For measurement of phagocytosis by flow cytometry, PAK was heat-killed and stained with 10 μM of SYTO9 (Thermo Scientific™) at room temperature for 30 minutes and then was extensively washed with ice-cold PBS several times. The staining dose of PAK was determined by flow cytometry. […] The fluorescence of extracellular PAK attached to the cell surface was quenched by replacing the medium with PBS containing 0.2% trypan blue.
For CFU counting-based phagocytosis and bacterial killing assay, PAK was cultured at 37° C. overnight with continuous shaking and was resuspended in PBS. […] The diluted aliquots were spread on LB agar plates, and CFU was counted after incubation of the plates overnight at 37° C.

CXCL8 in THP-1 cells = experiment: MSU crystal-induced CXCL8 in CD36 silenced THP-1 cells, ELISA; format: cell-based, human; conditions: PLAG 10, 100 μg/ml
Experimental: The specific siRNA of CD36 (sc-29995) and control siRNA (sc-37007) were purchased from Santa Cruz Biotechnology. Cells were transfected with 50 nM of either the targeting or control siRNA using HiPerFect Transfection Reagent (Qiagen, Hilden, Germany) for 24 h. The knockdown efficiency of siRNAs was confirmed by Western blot analysis.
Transfected THP-1 cells were pre-incubated with PLAG (10, 100 μg/ml) for 1 hour and then stimulated with MSU crystal (400 μg/ml). After 24 hours, cells were centrifuged, and the supernatant was harvested. The concentrations of CXCL8 in the supernatant of THP-1 cells were measured using Human CXCL8 ELISA kit (BD bioscience, New Jersey, USA) according to the manufacturer's instructions. The cytokine levels were estimated by interpolation from a standard curve using an ELISA reader (Molecular Devices, Sunnyvale, USA) at 450 nm.

[3] = test system: MIP-2, IL-6, CXCL8 in RAW 264.7 or HaCaT cells; experiment: IMQ-induced chemokine release, ELISA; format: cell-based; conditions: PLAG 1, 10, 100 μg/ml, IMQ 12 hours, dose-dependent
Experimental: RAW 264.7 or HaCaT cells were divided into three groups: 1) control (non-treated) group, 2) IMQ treated group, and 3) IMQ/PLAG treated group. For IMQ treated group, cells were treated with 1, 10, 100 μg/ml of DMSO (as solvent control) for 1 hour and treated with 5 μg/mL of IMQ for 12 hours. For IMQ/PLAG treated group, cells were treated with 1, 10, 100 μg/ml of PLAG for 1 hour and treated with 5 μg/mL of IMQ for 12 hours. MIP-2 (A), IL-6 (B) and CXCL8 (C) in the culture supernatants were analyzed with the cognate antibody using ELISA kit. Modulation of CXCL8 expression in the IMQ treated HaCaT cells by MAPK inhibitors, SCH 772984 (ERK inhibitor, (D)), SP600125 (JNK inhibitor, (E)) and SB203580 (p38 inhibitor, (F)) was evaluated using ELISA kit (BD bioscience, New Jersey, USA) according to the manufacturer's instructions. The cytokine levels were estimated by interpolation from a standard curve using an ELISA reader (Molecular Devices, Sunnyvale, USA) at 450 nm.

For CCCCC/C=C\C/C=C\CCCCCCCC(=O)OC(COC(C)=O)COC(=O)CCCCCCCCCCCCCCC (racemic) [PLAG, 1-palmitoyl-2-linoleoyl-3-acetylglycerol], the “gemcitabine-induced chemokines MIP2 and CXCL8, transcriptional and secreted protein level” value [1] was “effectively reduced”, the “PLAG effect on enhanced bacterial phagocytosis in silenced cells” value [2] was “enhances neither phagocytosis nor bacterial killing; also recorded: abrogated” and the “decrease of CXCL8 induced by MSU crystal” value (CXCL8 in THP-1 cells) was “still shown”. The “MIP-2, IL-6, CXCL8 induced by IMQ” value [3] was “gradually decreased”.
